Measured values from US8026070B2 (priority 2005, dated 2011).
“And” between values parts separate entries of the source, which are not always exact repeats. Identical values can stand only once. Like-named read-outs stand apart in the source and are kept apart here.

Tested on: human recombinant PrP spiked into human plasma

## NCCCCCC(=O)O [ACA, 6-aminohexanoic acid]
  Effect on detection of spiked human recombinant prion protein in human plasma: enhanced the detection
  Non-specific binding, optical density at 450 nm: 0.4665 and 0.4128 and 0.4549
  Only Plasma, optical density at 450 nm: 0.4036 and 0.4098 and 0.3737
  Plasma with human recombinant PrP, optical density at 450 nm: 0.52 and 0.5723 and 0.6507
  Ratio of Signals (ratio of signals from spiked plasma and only plasma samples): 1.3 and 1.4 and 1.7

## NC[C@H]1CC[C@H](C(=O)O)CC1 [AMCHA, trans-(aminomethyl)cyclohexanecarboxylic acid]
  Ratio of Signals (ratio of signals from spiked plasma and only plasma samples): 1.7 and 1.6 and 1.8
All concentrations (1, 10, 100 mM) in the sample preparation buffer
  Effect on detection of spiked human recombinant prion protein in human plasma: enhanced the detection
